Experiment: xn = mol fraction of the nth substance listed
Conditions: 100 kPa, Liquid; for speed of sound: Frequency=3 MHz, Sing-around technique in a fixed-path interferometer; for mass density: Vibrating tube method

CCCCn1cc[n+](C)c1.N#C[S-] [1-butyl-3-methylimidazolium thiocyanate] + CC(=O)O
Conditions	mass density, 293.15 K [kg/m3]	mass density, 298.15 K [kg/m3]	mass density, 303.15 K [kg/m3]	mass density, 308.15 K [kg/m3]	mass density, 313.15 K [kg/m3]	speed of sound, 293.15 K [m/s]	speed of sound, 298.15 K [m/s]	speed of sound, 303.15 K [m/s]	speed of sound, 308.15 K [m/s]	speed of sound, 313.15 K [m/s]
x1 = 0.058	1064.97	1060.08	1055.2	1050.32	1045.44	1270.5	1252.4	1235.9	1218.7	1202
x1 = 0.1206	1070.89	1066.45	1062	1057.56	1053.12	1369.6	1353.9	1338	1322.1	1306.4
x1 = 0.1878	1072.93	1069.2	1064.96	1060.77	1056.64	1448.3	1433.8	1419	1404.2	1389.4
x1 = 0.2632	1073.93	1070.07	1066.21	1062.35	1058.51	1520	1506.3	1492.2	1478.1	1464.2
x1 = 0.3498	1073.95	1070.59	1066.92	1063.27	1059.63	1576.8	1563.6	1550.1	1536.6	1523.3
x1 = 0.4503	1074.04	1070.98	1067.53	1064.1	1060.67	1626.5	1613.6	1600.6	1587.6	1574.8
x1 = 0.5559	1073.89	1070.99	1067.68	1064.39	1061.21	1667	1658.3	1641.9	1629.3	1616.9
x1 = 0.6831	1073.66	1071.08	1067.9	1064.74	1061.59	1707.6	1695.4	1683.1	1670.8	1658.6
x1 = 0.8282	1073.35	1070.87	1067.81	1064.75	1061.71	1744.3	1732.4	1720.3	1708.4	1696.4
x1 = 0.9042	1073.19	1070.77	1067.74	1064.74	1061.75	1760.7	1749	1737	1725.2	1713.4
x1 = 1	1072.74	1070.34	1067.37	1064.42	1061.47	1778.8	1767.2	1755.4	1743.7	1732.1

CCCCn1cc[n+](C)c1.N#C[S-] [1-butyl-3-methylimidazolium thiocyanate] + CCC(=O)O
Conditions	mass density, 293.15 K [kg/m3]	mass density, 298.15 K [kg/m3]	mass density, 303.15 K [kg/m3]	mass density, 308.15 K [kg/m3]	mass density, 313.15 K [kg/m3]	speed of sound, 293.15 K [m/s]	speed of sound, 298.15 K [m/s]	speed of sound, 303.15 K [m/s]	speed of sound, 308.15 K [m/s]	speed of sound, 313.15 K [m/s]
x1 = 0.0698	1015.42	1010.77	1006.13	1001.49	996.86	1260.2	1243	1225.7	1208.3	1191
x1 = 0.1444	1031.52	1027.32	1023.13	1018.95	1014.78	1361.3	1345.7	1329.8	1313.9	1298.1
x1 = 0.2223	1042.18	1038.27	1034.37	1030.48	1026.6	1445.8	1431.2	1416.3	1401.5	1386.8
x1 = 0.306	1049.78	1046.09	1042.4	1038.73	1035.07	1514.4	1500.5	1486.3	1472.3	1458.3
x1 = 0.3989	1055.66	1052.15	1048.65	1045.17	1041.69	1571.4	1558.1	1544.6	1531.1	1517.8
x1 = 0.5022	1060.19	1057.09	1053.43	1050.09	1046.79	1619.3	1606.6	1593.7	1580.8	1568.1
x1 = 0.6068	1064.02	1061.09	1057.85	1054.64	1051.44	1662	1649.6	1637	1624.6	1612.2
x1 = 0.7166	1067.2	1064.46	1061.32	1058.2	1055.09	1700.9	1688.8	1676.4	1664.2	1652.1
x1 = 0.8561	1070.36	1067.84	1064.79	1061.76	1058.74	1742.8	1730.9	1718.9	1707	1695.1
x1 = 0.9209	1071.7	1069.3	1066.3	1063.3	1060.33	1761.8	1750	1738.1	1726.3	1714.6
x1 = 1	1072.74	1070.34	1067.37	1064.42	1061.47	1778.8	1767.2	1755.4	1743.7	1732.1

CC(=O)O [acetic acid] + CCCCn1cc[n+](C)c1.N#C[S-]
x2 = 0
Conditions	mass density [kg/m3]	speed of sound [m/s]
293.15 K	1049.75	1152.7
298.15 K	1044.13	1135.7
303.15 K	1038.48	1118.4
308.15 K	1032.83	1101.2
313.15 K	1027.18	1084

CCC(=O)O [propanoic acid] + CCCCn1cc[n+](C)c1.N#C[S-]
x2 = 0
Conditions	mass density [kg/m3]	speed of sound [m/s]
293.15 K	993.33	1164.7
298.15 K	987.94	1146
303.15 K	982.54	1127.1
308.15 K	977.14	1108.3
313.15 K	971.75	1089.6

Reference: the NIST ThermoML archive (doi:10.1016/j.jct.2015.05.004)
